{
  "source": "patent US20250170101A1",
  "about": "“MONOACYLGLYCEROL LIPASE INHIBITORS AND USE THEREOF FOR THE TREATMENT AND MANAGEMENT OF PAIN AND RELATED CONDITIONS” (Psy Therapeutics, Inc., priority 2021, published 2025)",
  "key": {"MAGL enzyme": {"molecular_target": "T1, MAGL enzyme (Homo sapiens, UniProt Q99685)", "T1 sequence (Q99685 1-303)": "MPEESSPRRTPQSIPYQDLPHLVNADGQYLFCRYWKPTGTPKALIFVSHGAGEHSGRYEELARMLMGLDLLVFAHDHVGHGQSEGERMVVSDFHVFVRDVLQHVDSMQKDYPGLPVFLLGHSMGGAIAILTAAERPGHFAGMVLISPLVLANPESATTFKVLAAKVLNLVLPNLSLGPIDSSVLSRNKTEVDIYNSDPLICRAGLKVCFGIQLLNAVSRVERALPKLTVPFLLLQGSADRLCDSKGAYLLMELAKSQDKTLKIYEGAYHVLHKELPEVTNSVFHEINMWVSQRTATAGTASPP", "assay": "MAGL reversible inhibition assay (washout), Example 22", "assay_type": "biochemical", "parameters": "% MAGL activity returning after washout: concentration or dose not given beside the values"}, "[1]": {"assay": "Pharmacokinetic study of compounds in mice, Example 25", "assay_type": "in vivo, male C57BL/6 mice", "details": "Brain, Oral, 5 mg/kg", "description": "Healthy male C57BL/6 mice (8-12 weeks old) weighing between 17 to 35 g were procured from Global, India. Temperature and humidity were maintained at 22±3° C. and 30-70%, respectively and illumination was controlled to give a sequence of 12 hr light and 12 hr dark cycle. Temperature and humidity were recorded by auto-controlled data logger system. All the animals were provided laboratory rodent diet. Reverse osmosis water treated with ultraviolet light was provided ad libitum.\nProtocol A: Twenty-four male mice were divided into two groups as; Group 1: 30 mg/kg/IP; Plasma and brain; Number of animals=12; Animal #1-12. Group 2: 30 mg/kg/PO; Plasma and brain; Number of animals=12; Animal #13-24. […] All samples were processed for analysis by protein precipitation using acetonitrile and analyzed with fit-for-purpose LC/MS/MS method (LLOQ—2.02 ng/mL for plasma and 6.06 ng/g for brain). Pharmacokinetic parameters were calculated using the non-compartmental analysis tool of Phoenix WinNonlin®.\nProtocol B: Thirty six mice were included into the study and divided in to three groups as Group 1 (n=12), Group 2 (n=12) and Group 3 (n=12) with n=2 mice per time-point design. […] Plasma and brain samples were quantified by fit-for-purpose LC-MS/MS method (LLOQ: 1.01 ng/mL for plasma and 2.02 ng/mL for brain). […]"}},
  "data": [
    {"compound": "O=C(c1cc(O)ccc1F)N1CC2(CC(n3cc(C(F)(F)F)c(-c4ccccc4F)n3)C2)C1", "note": "(single isomer, unassigned) [Compound 473, (2-fluoro-5-hydroxyphenyl){6-[3-(o-fluorophenyl)-4-(trifluoromethyl)-1-pyrazolyl]-2-aza-2-spiro[3.3]heptyl}methanone]", "values": [
      {"measurement": "degree to which MAGL enzymatic activity returned following washout of test compounds", "setting": "MAGL enzyme; pre-washout compound concentration 1 μM", "result": 41},
      {"measurement": "% MAGL activity returning after washout", "setting": "MAGL enzyme; relative to control (no inhibitor before washout), immediately following 30 minute washout", "result": "<50", "unit": "%"},
      {"measurement": "AUClast", "setting": "[1]", "result": 464.42, "unit": "ng·h/mL"}
    ]}
  ]
}
